Consider eight compounds from patent US20250154146A1, “PROTEIN DEGRADERS DEVELOPED ON BASIS OF BCL-2 FAMILY PROTEIN LIGAND COMPOUNDS AND USE THEREOF” (ShanghaiTech University, priority 2022, published 2025).

Each structure is given as a SMILES string.

Common to all, as to format: cell-based
In one experiment the test system is MV4;11 cells. Description: Thiazolyl blue cell proliferation assay in MV4;11 cells. The settings on record: Homo sapiens, MV4;11 myeloid monocytic leukemia cells, 48 hours, read-out: IC50 (nM) for inhibiting the proliferation of MV4;11 cells. The source says: (§1) The cell lines RS4;11 (human acute lymphocytic leukemia cells), Molt-4 cells (human acute lymphocytic leukemia cells), MV4;11 (human myeloid monocytic leukemia cells), and Light II cells were commercially available or purchased from ATCC (American Type Culture Collection) and routinely cultured according to instructions.
2) Study on the proliferation inhibition effects induced by the compounds of the present disclosure designed based on ABT199/263 against BCL-XL-dependent MV4;11 cells:
(§2) The specific steps were as follows: MV4;11 cells were seeded at a density of 2×10^4 cells/well in 90 μL of serum-containing IMDM culture medium. DT2216 and the compounds of the present disclosure were added to the cell suspension at corresponding concentration gradients. DT2216 and DMSO were used as positive and vehicle control, respectively. The positive control and negative control were treated with the same treatment method as the compounds of the present disclosure. After treating the cells with the compounds of the present disclosure for 48 hours, thiazole blue solution (5 mg/mL) was added at 10 µL/well to the cell suspension, followed by incubation for 3 hours at 37° C. in an incubator with 5% CO2. Then, triple solution (0.1 g/mL SDS, 5% isopropyl alcohol, 10 mM hydrochloric acid) was added, followed by incubation for 4-6 hours at 37° C. in an incubator with 5% CO2. After confirming that all the crystal violets were dissolved under inverted biological microscopy, the absorbance was measured at 490 nm using an Epoch microplate reader (Biotek Corporation). The growth inhibition of the compounds of the present disclosure on the cells was plotted by GraphPad Prism 8 software, and the IC50 values of the compounds of the present disclosure were calculated therefrom. The experiment had 3 replicates per group and was repeated at least three times.

Another experiment concerns RS4;11 cells. Description: Thiazolyl blue cell proliferation assay in RS4;11 cells. The settings on record: Homo sapiens, RS4;11 acute lymphoblastic leukemia cells, 48 hours, read-out: IC50 (nM) for inhibiting the proliferation of RS4;11 cells.
Excerpt: as §1
1) Study on the proliferation inhibition effects induced by the compounds of the present disclosure designed based on ABT199/263 against BCL-XL-dependent RS4;11 cells:
as §2, with “RS4;11” for “MV4;11”, “3×10^4” for “2×10^4”, “RPMI-1640” for “IMDM”, “μL/well” for “µL/well”
We conducted dose-dependent experiments on the designed and synthesized compounds of the present disclosure in RS4;11 cells, which are highly sensitive to BCL-XL inhibitors. The cells were treated with 7 different concentrations (starting at the highest concentration of 1000 nM or 100 nM; 10-fold serial dilutions) of the compounds for 48 hours, and then tested using the thiazolyl blue cell proliferation assay.

The next experiment has as its system Molt-4 cells. Description: Thiazolyl blue cell proliferation assay in Molt-4 cells. The settings on record: Homo sapiens, Molt-4 acute lymphocytic leukemia cells, 72 hours, read-out: IC50 (nM) for inhibiting the proliferation of Molt-4 cells.
Excerpt: as §1
3) Study on the proliferation inhibition effects induced by the compounds of the present disclosure designed based on ABT199/263 against BCL-XL-dependent Molt-4 cells:
as §2, with “follows: Molt-4” for “follows: MV4;11”, “in 180” for “in 90”, “serum-containing RPMI 1640” for “serum-containing IMDM”, “for 72” for “for 48”, “at 20 μL/well” for “at 10 µL/well”

As to `C[C@H]1CN([C@H]2CC[C@@H](CNc3ccc(S(=O)(=O)NC(=O)c4ccc(N5CCN(CC6=C(c7ccc(Cl)cc7)CC(C)(C)CC6)CC5)cc4Oc4cnc5[nH]ccc5c4)cc3[N+](=O)[O-])CC2)CCN1Cc1ccc2c(c1)C(=O)N(C1CCC(=O)NC1=O)C2=O` (stereo partly drawn) [BCL-03190, 2-((1H-pyrrolo[2,3-b]pyridin-5-yl)oxy)-4-(4-((4′-chloro-5,5-dimethyl-3,4,5,6-tetrahydro-[1,1′-biphenyl]-2-yl)methyl)piperazin-1-yl)-N-((4-((((cis)-4-((3S)-4-((2-(2,6-dioxopiperidin-3-yl)-1,3-dioxoisoindolin-5-yl)methyl)-3-methylpiperazin-1-yl)cyclohexyl)methyl)amino)-3-nitrophenyl)sulfonyl)benzamide], the IC50 is less than 20 nM in the experiment with MV4;11 cells, less than 20 nM in the experiment on RS4;11 cells and less than 10 nM with Molt-4 cells.
Consider `CC1(C)CCC(c2ccc(Cl)cc2)=C(CN2CCN(c3ccc(C(=O)NS(=O)(=O)c4ccc(NC[C@H]5CC[C@H](N6CCN(Cc7ccc8c(c7)CN(C7CCC(=O)NC7=O)C8=O)CC6)CC5)c([N+](=O)[O-])c4)cc3)CC2)C1` (stereo partly drawn) [BCL-03181, 4-(4-((4′-chloro-4,4-dimethyl-3,4,5,6-tetrahydro-[1,1′-biphenyl]-2-yl)methyl)piperazin-1-yl)-N-((4-((((trans)-4-(4-((2-(2,6-dioxopiperidin-3-yl)-1-oxoisoindolin-5-yl)methyl)piperazin-1-yl)cyclohexyl)methyl)amino)-3-nitrophenyl)sulfonyl)benzamide], for which the IC50 in the experiment on RS4;11 cells is less than 20 nM.
For `C[C@H]1CN([C@H]2CC[C@H](CNc3ccc(S(=O)(=O)NC(=O)c4ccc(N5CCN(CC6=C(c7ccc(Cl)cc7)CC(C)(C)CC6)CC5)cc4Oc4cnc5[nH]ccc5c4)cc3[N+](=O)[O-])CC2)CCN1Cc1cc(Br)c2c(c1)C(=O)N(C1CCC(=O)NC1=O)C2` (stereo partly drawn) [BCL-03170, 2-((1H-pyrrolo[2,3-b]pyridin-5-yl)oxy)-N-((4-((((trans)-4-((3S)-4-((7-bromo-2-(2,6-dioxopiperidin-3-yl)-3-oxoisoindolin-5-yl)methyl)-3-methylpiperazin-1-yl)cyclohexyl)methyl)amino)-3-nitrophenyl)sulfonyl)-4-(4-((4′-chloro-5,5-dimethyl-3,4,5,6-tetrahydro-[1,1′-biphenyl]-2-yl)methyl)piperazin-1-yl)benzamide], in the experiment on Molt-4 cells, the IC50 was less than 10 nM.
For the compound `CC1(C)CCC(CN2CCN(c3ccc(C(=O)NS(=O)(=O)c4ccc(NC[C@H]5CC[C@H](N6CCN(Cc7ccc8c(c7)CN(C7CCC(=O)NC7=O)C8=O)CC6)CC5)c(S(=O)(=O)C(F)(F)F)c4)c(Oc4cnc5[nH]ccc5c4)c3)CC2)=C(c2ccc(Cl)cc2)C1` (stereo partly drawn) [BCL-03179, 2-((1H-pyrrolo[2,3-b]pyridin-5-yl)oxy)-4-(4-((4′-chloro-5,5-dimethyl-3,4,5,6-tetrahydro-[1,1′-biphenyl]-2-yl)methyl)piperazin-1-yl)-N-((4-((((trans)-4-(4-((2-(2,6-dioxopiperidin-3-yl)-1-oxoisoindolin-5-yl)methyl)piperazin-1-yl)cyclohexyl)methyl)amino)-3-((trifluoromethyl)sulfonyl)phenyl)sulfonyl)benzamide], the IC50 in the experiment on MV4;11 cells is less than 20 nM; with RS4;11 cells it was less than 20 nM; in the experiment on Molt-4 cells, less than 10 nM.
Take `CC1(C)CCC(c2ccc(Cl)cc2)=C(CN2CCN(c3ccc(C(=O)NS(=O)(=O)c4ccc(N[C@H](CCN5CCN(Cc6cc(Br)c7c(c6)C(=O)N(C6CCC(=O)NC6=O)C7)CC5)CSc5ccccc5)c(S(=O)(=O)C(F)(F)F)c4)cc3)CC2)C1` (stereo partly drawn) [BCL-03178, N-((4-(((2R)-4-(4-((7-bromo-2-(2,6-dioxopiperidin-3-yl)-3-oxoisoindolin-5-yl)methyl)piperazin-1-yl)-1-(phenylthio)butan-2-yl)amino)-3-((trifluoromethyl)sulfonyl)phenyl)sulfonyl)-4-(4-((4′-chloro-4,4-dimethyl-3,4,5,6-tetrahydro-[1,1′-biphenyl]-2-yl)methyl)piperazin-1-yl)benzamide]: the IC50 in the experiment on Molt-4 cells is less than 10 nM.
Same read-out and setting: the same measure for `C[C@@H]1CN([C@H]2CC[C@H](CNc3ccc(S(=O)(=O)NC(=O)c4ccc(N5CCN(CC6=C(c7ccc(Cl)cc7)CC(C)(C)CC6)CC5)cc4Oc4cnc5[nH]ccc5c4)cc3[N+](=O)[O-])CC2)CCN1Cc1cc(Br)c2c(c1)C(=O)N(C1CCC(=O)NC1=O)C2` (stereo partly drawn) [BCL-03172, 2-((1H-pyrrolo[2,3-b]pyridin-5-yl)oxy)-N-((4-((((trans)-4-((3R)-4-((7-bromo-2-(2,6-dioxopiperidin-3-yl)-3-oxoisoindolin-5-yl)methyl)-3-methylpiperazin-1-yl)cyclohexyl)methyl)amino)-3-nitrophenyl)sulfonyl)-4-(4-((4′-chloro-5,5-dimethyl-3,4,5,6-tetrahydro-[1,1′-biphenyl]-2-yl)methyl)piperazin-1-yl)benzamide]: less than 10 nM.
Take `C[C@@H]1CN([C@H]2CC[C@@H](CNc3ccc(S(=O)(=O)NC(=O)c4ccc(N5CCN(CC6=C(c7ccc(Cl)cc7)CC(C)(C)CC6)CC5)cc4Oc4cnc5[nH]ccc5c4)cc3[N+](=O)[O-])CC2)CCN1Cc1cc(Br)c2c(c1)C(=O)N(C1CCC(=O)NC1=O)C2` (stereo partly drawn) [BCL-03171, 2-((1H-pyrrolo[2,3-b]pyridin-5-yl)oxy)-N-((4-((((cis)-4-((3R)-4-((7-bromo-2-(2,6-dioxopiperidin-3-yl)-3-oxoisoindolin-5-yl)methyl)-3-methylpiperazin-1-yl)cyclohexyl)methyl)amino)-3-nitrophenyl)sulfonyl)-4-(4-((4′-chloro-5,5-dimethyl-3,4,5,6-tetrahydro-[1,1′-biphenyl]-2-yl)methyl)piperazin-1-yl)benzamide]: the IC50 in the experiment on Molt-4 cells is less than 10 nM.
For the compound `CC1(C)CCC(c2ccc(Cl)cc2)=C(CN2CCN(c3ccc(C(=O)NS(=O)(=O)c4ccc(NC[C@H]5CC[C@H](N6CCN(Cc7ccc8c(c7)CN(C7CCC(=O)NC7=O)C8=O)CC6)CC5)c(S(=O)(=O)C(F)(F)F)c4)cc3)CC2)C1` (stereo partly drawn) [BCL-03180, 4-(4-((4′-chloro-4,4-dimethyl-3,4,5,6-tetrahydro-[1,1′-biphenyl]-2-yl)methyl)piperazin-1-yl)-N-((4-((((trans)-4-(4-((2-(2,6-dioxopiperidin-3-yl)-1-oxoisoindolin-5-yl)methyl)piperazin-1-yl)cyclohexyl)methyl)amino)-3-((trifluoromethyl)sulfonyl)phenyl)sulfonyl)benzamide], the IC50 in the experiment on RS4;11 cells is less than 20 nM.
